Legend:
[1] = tested on: liver; details: Taki et al.; without systemic effects; cited from earlier work
[2] = tested on: inflammatory pseudotumor (benign liver lesion); assay: Contrast-enhanced CT before and after acetazolamide in a biopsy patient; type: in vivo, Humans
Procedure: FIG. 10 is a plot illustrating CT perfusion analysis of a biopsy proven inflammatory pseudotumor before and after acetazolamide (AZ) administration (AZ 250 mg+50 mL Optiray 320).
Several preliminary studies have been carried out using a protocol approved by the Institutional Review Board (IRB) of University Hospitals of Cleveland (FIGS. 10-11). One patient undergoing routine biopsy was screened using a pre- and post-acetazolamide injection contrast-enhanced CT scans. Following the scans, a biopsy of the tissue was taken and sent for routine histological analysis. On the image data, standard region of interest (ROI) analysis was used to obtain signal intensity values (in Hounsfield units or HU) over 600 seconds in normal liver and the mass. […] Our general hypothesis is that normal vessels either in normal liver or benign lesions respond to the vasodilatation, so the decrease in conspicuity results from dilatation of both vessel sites. […] This was confirmed by histological diagnosis. A patient with a suspected recurrent tumor underwent a similar protocol as above. Again, on the baseline scan, the lesion enhances less than the normal liver. […] Instead of creating a “steal”, the flow increases flow in the lesion indicating it has normal vessels consistent with benign inflammation. Again, the results were confirmed with CT-guided biopsy.

[3] = tested on: suspected recurrent tumor in liver; assay: MR of suspected recurrent liver tumor without and after Diamox; type: in vivo, Humans; details: post Diamox scan vs baseline scan; lesion confirmed benign inflammation
Source text: FIGS. 11(a-c) are MR of suspected recurrent tumor in liver without (A) and after (B) vasodilator (Diamox), and image-guided biopsy confirmation (C). In A and B, the solid line corresponds to the lesion and the “dashed” line corresponds to the normal liver.
Several preliminary studies have been carried out using a protocol approved by the Institutional Review Board (IRB) of University Hospitals of Cleveland (FIGS. 10-11). One patient undergoing routine biopsy was screened using a pre- and post-acetazolamide injection contrast-enhanced CT scans. Following the scans, a biopsy of the tissue was taken and sent for routine histological analysis. On the image data, standard region of interest (ROI) analysis was used to obtain signal intensity values (in Hounsfield units or HU) over 600 seconds in normal liver and the mass. […] Our general hypothesis is that normal vessels either in normal liver or benign lesions respond to the vasodilatation, so the decrease in conspicuity results from dilatation of both vessel sites. […] This was confirmed by histological diagnosis. A patient with a suspected recurrent tumor underwent a similar protocol as above. Again, on the baseline scan, the lesion enhances less than the normal liver. […] Instead of creating a “steal”, the flow increases flow in the lesion indicating it has normal vessels consistent with benign inflammation. […]

[4] = tested on: small hepatoma; assay: MRI perfusion study, baseline and AZ enhanced; type: in vivo
Source text: FIGS. 7(a-b) are plots illustrating MRI perfusion study with the solid line showing flow in a small hepatoma and the dotted line showing flow in the normal parenchyma. FIG. 7a illustrates a baseline perfusion study showing quicker and higher enhancement of tumor vs normal liver.

[5] = tested on: hepatic artery; assay: Hepatic artery blood flow after intravenous acetazolamide; type: in vivo; details: 100 mg/kg intravenously; for Blood flow in the hepatic artery: before about 2.8 ml/min
Source text: The amount of vasoactive agent administered to the subject to cause a noticeable increase or decrease in blood flow to the tissue of interest will depend on the specific agent administered to the subject.

[6] = tested on: VX2 tumor; assay: Functional CT perfusion before and after acetazolamide, tumor peripheral rim; type: in vivo, New Zealand White rabbits; details: peripheral rim of untreated tumor, day 28; acetazolamide 50 mg/kg IV; mean±SE
Source text: (§1) All animal procedures were approved by the Institutional Animal Care and Use Committee at Case Western Reserve University. The VX2 tumor, a xenograft hepatoma model used frequently in radiological studies, was donated by S, Nahum Goldberg MD, (Beth Israel Medical Center, Boston, Mass.). Tumor was initiated in livers of 5 male New Zealand White rabbits weighing 3 kg (Covance, Princeton, N.J.) using methods described previously. The tumor was first propagated in the thigh of a donor rabbit, where a suspension of tumor cells was injected intramuscularly into one thigh. The tumor was grown until the palpated size reached approximately 1 cm^3 and was harvested from anesthetized animals using sterile techniques. Pieces of the tumor (4 mm^3) were cut, placed in 10% DMSO in pure calf's serum, and stored in liquid nitrogen.
(§2) For implantation in the liver, frozen tumor was rapidly thawed and washed. Rabbits were anesthetized using a combination of xylazine (5 mg/kg), ketamine (50 mg/kg), acepromazine (2 mg/kg) and atropine (0.2 mg/kg). The abdomen was shaved and cleaned, and the liver was exposed. A piece of tumor was then inserted into the liver parenchyma and the incisions were closed. During recovery, all animals received Buprenex (0.5 mg/kg) for pain management and a subcutaneous injection of 25 ml of 0.9% saline. Additional Buprenex and saline were given as needed.
(§3) Liver perfusion maps were created 28 days after initiation of the tumor by tracking contrast enhancement on eight sequential CT images (acquired on the Mx8000 IDT, Philips Medical scanner) before and after IV injection of acetazolamide. During each CT exam, first an unenhanced baseline scan was carried out. […]
(§4) A CT perfusion software package available from the scanner manufacturer was used for all perfusion measurements. […] Arterial and portal perfusion were calculated by measuring the slope of the time-density curve before (arterial) and after (venous) peak splenic enhancement and normalizing by the vascular input. A mean percent change in perfusion before and after CAI injection was calculated. […]

[7] = tested on: normal liver; assay: Functional CT perfusion before and after acetazolamide, normal liver; type: in vivo, New Zealand White rabbits; details: acetazolamide 50 mg/kg IV, mean±SE
Source text: as §1, §2, §3, §4

[8] = tested on: kidney; details: Taki et al.; without systemic effects; cited from earlier work
[9] = tested on: woodchuck hepatoma; assay: FDG PET uptake curves with and without phenylephrine; type: in vivo; details: PET with FDG and phenylephrine vs baseline FDG alone
Source text: FIG. 8 is a plot illustrating FDG uptake curves in woodchuck hepatoma from two PET studies.

[10] = tested on: lung cancer; assay: FDG PET of lung cancer before and after oral pseudoephedrine; type: in vivo; details: after oral pseudoephedrine; baseline SUV 4.8
Source text: FIGS. 9(a-b) are baseline CT (A) and corresponding PET (B) images of lung cancer. FIGS. 9(c-d) are images illustrating Tumor after oral pseudoephedrine. The tumor has not changed size on CT but has increased PET signal. SUV increased from 4.8 to 8.8, presumably due to increased blood flow to tumor and capture of FDG.

[11] = tested on: normal prostate vessels; assay: DCE MRI of the normal prostate with vasoactive drugs; type: in vivo, person
Procedure: A person with no history of prostate cancer and normal PSA, volunteered for multiple DCE MRI exams of the prostate to evaluate vasoactive modulation of the normal blood flow. Three separate examinations were performed several weeks apart. The studies were performed on a Siemens 1.5T Symphony scanner. The DCE MRI examination included, Siemens's tfiperf, (inversion fisp) sequence. TR=3000, TE=1.27, TI=400 flip angle=50. Gadolinium Veresetamide […], injection at 2 cc/sec for a total of 20 cc. Images were obtained every 3 seconds for a total period of 5 minutes and every minute thereafter for 15 minutes.
All three studies were performed with identical MRI sequences and parameters. The first study was performed without a vasoactive drug but the second and third study were repeated with administration of a vasoactive drug, silfenadil or pseudoephedrine. […] The third DCE MRI was performed identical to the second study with the oral administration of 25 mg of silfenadil one hour before the study, and the administration of 60 mg of pseudoephedrine 20 minutes preceding the gadolinium injection. The absorption rate of each drug is quite predictable according to the literature so the initial part of the study performed before the pseudoephedrine was vasodilated and the subsequent study had vasodilator combined with a vasoconstrictor.
Data analysis was performed using ANALYZE data management software (Analyze Direct, Inc., Lenexa, Kans., 66215, USA) and Excel (Microsoft, Seattle, Wash.).
Data graphs were normalized to the blood flow of the iliac artery. The data was acquired during the five minute period following intravenous gadolinium injection and thereby provides a semiquantitative assessment of blood flow characteristics, see below data discussion.

[12] = between 21 seconds and 72 seconds, 25 mg oral one hour prior
[13] = gadolinium after sildenafil, FIG. 13 legend

CC(=O)Nc1nnc(S(N)(=O)=O)s1 [acetazolamide]
Increase in blood flow to the liver [1]: 75+/−36%
Conspicuity ([2]; after AZ injection (AZ 250 mg), 32 HU before, benign lesion): 15 HU
Blood flow / signal intensity ([2]; post-acetazolamide contrast-enhanced CT, normal liver and mass): increases in the normal liver and in the mass
Enhancement of the lesion [3]: increases relative to the normal liver
Enhancement of tumor vs normal liver [4]: decrease in enhancement of the tumor compared to the normal liver
Increase in the blood flow through the hepatic artery [5]: about 18%
Blood flow in the hepatic artery ([5]; after about 10 minutes): about 3.1 ml/min
Blood flow in the hepatic artery ([5]; after about 20 minutes): about 3.3 ml/min
Change in arterial perfusion [6]: −31±9%
Change in total perfusion [6]: −30±7%
Change in venous perfusion [6]: −20±12%
Change in arterial perfusion [7]: −3±33%
Change in total perfusion [7]: 41±18%
Change in venous perfusion [7]: 31±18%
Increase in blood flow to the kidney [8]: 33+/−11%

CNC[C@H](O)c1cccc(O)c1 [phenylephrine]
FDG uptake in lesion [9]: increased uptake

CN[C@@H](C)[C@@H](O)c1ccccc1 [pseudoephedrine]
SUV (FDG PET signal of tumor) [10]: 8.8
Reduction in the enhancement ([11]; after 14 minutes, pseudoephedrine 60 mg oral on top of silfenadil 25 mg oral): about 20%
Intensity in the equilibration phase ([11]; at 14 minutes, pseudoephedrine 60 mg oral after Sildenafil 25 mg oral): definite decrease in intensity

CCCc1nn(C)c2c(=O)[nH]c(-c3cc(S(=O)(=O)N4CCN(C)CC4)ccc3OCC)nc12 [sildenafil]
Enhancement of the prostate gland on MRI image ([11]; after sildenafil 50 mg and gadolinium, vs study without Viagra (FIG. 16)): greater enhancement of the gland
Increase of lateral lobe enhancement vs baseline study [11, 12]: 78%
Increase of medial lobe enhancement vs baseline study [11, 12]: 73%
Enhancement greater than the enhanced undilated study, medial lobe [11, 13]: 78%
Maximum enhancement greater than the enhanced, undilated study, lateral lobe [11, 13]: 73%
Increase of enhancement curve vs baseline enhancement curve ([11]; throughout the entire scan period of 5 minutes (300 seconds), 25 mg oral one hour prior): more than 70%
